Each structure is given as a SMILES string.

One test has as its system Rattus norvegicus. As to the kind of experiment: Hypophagic effect in fasted male Sprague-Dawley rat assessed as inhibition of food intake at 10 mg/kg, po measured after 1 hr relative to control. It counts as functional. Particulars: for inhibition in vivo at 10 mg/kg: Rattus norvegicus, Sprague-Dawley, po.
The target in test [1] is T1, 5-hydroxytryptamine receptor 2B (Homo sapiens, UniProt P41595). The test can be described thus: Displacement of [125I]-DOI from 5-HT2B receptor (unknown origin) expressed in HEK293 cell membrane incubated for 1 hr by scintillation counter analysis. It counts as cell membranes. In general terms: In a radioligand displacement assay an active substance lowers the binding of a labelled ligand.

Test [2] has as its target T1, 5-hydroxytryptamine receptor 2B. The test can be described thus: Displacement of [125I]-DOI from 5-HT2B receptor (unknown origin) expressed in HEK293 cell membrane assessed as inhibition constant incubated for 1 hr by scintillation counter analysis. In kind it is cell membranes.
Test [3] deals with T2, 5-hydroxytryptamine receptor 2A (Homo sapiens, UniProt P28223). The test can be described thus: Displacement of [125I]-DOI from 5-HT2A receptor (unknown origin) expressed in HEK293 cell membrane assessed as inhibition constant incubated for 1 hr by scintillation counter analysis. In kind it is cell membranes.
Test [4] deals with T3, 5-hydroxytryptamine receptor 2C (Homo sapiens, UniProt P28335).
T3 sequence (P28335 whole entry): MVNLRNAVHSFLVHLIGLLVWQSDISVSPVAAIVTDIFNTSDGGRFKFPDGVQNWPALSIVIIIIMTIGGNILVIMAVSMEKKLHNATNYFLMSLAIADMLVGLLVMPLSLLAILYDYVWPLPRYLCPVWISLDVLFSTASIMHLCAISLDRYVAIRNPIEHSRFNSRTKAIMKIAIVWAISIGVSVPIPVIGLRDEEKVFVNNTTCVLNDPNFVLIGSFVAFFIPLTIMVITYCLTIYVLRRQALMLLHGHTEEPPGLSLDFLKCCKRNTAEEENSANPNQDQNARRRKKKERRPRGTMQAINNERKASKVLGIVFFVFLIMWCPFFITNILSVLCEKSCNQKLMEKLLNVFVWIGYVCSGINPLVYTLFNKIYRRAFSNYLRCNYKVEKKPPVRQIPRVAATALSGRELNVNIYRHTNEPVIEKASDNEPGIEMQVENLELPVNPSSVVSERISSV

Test [5] concerns the target T3, 5-hydroxytryptamine receptor 2C. The source holds these as a separate data set.
Test [6] concerns the target T2, 5-hydroxytryptamine receptor 2A. The test can be described thus: Displacement of [125I]-DOI from 5-HT2A receptor (unknown origin) expressed in HEK293 cell membrane incubated for 1 hr by scintillation counter analysis. It counts as cell membranes.

T2 sequence (P28223 whole entry): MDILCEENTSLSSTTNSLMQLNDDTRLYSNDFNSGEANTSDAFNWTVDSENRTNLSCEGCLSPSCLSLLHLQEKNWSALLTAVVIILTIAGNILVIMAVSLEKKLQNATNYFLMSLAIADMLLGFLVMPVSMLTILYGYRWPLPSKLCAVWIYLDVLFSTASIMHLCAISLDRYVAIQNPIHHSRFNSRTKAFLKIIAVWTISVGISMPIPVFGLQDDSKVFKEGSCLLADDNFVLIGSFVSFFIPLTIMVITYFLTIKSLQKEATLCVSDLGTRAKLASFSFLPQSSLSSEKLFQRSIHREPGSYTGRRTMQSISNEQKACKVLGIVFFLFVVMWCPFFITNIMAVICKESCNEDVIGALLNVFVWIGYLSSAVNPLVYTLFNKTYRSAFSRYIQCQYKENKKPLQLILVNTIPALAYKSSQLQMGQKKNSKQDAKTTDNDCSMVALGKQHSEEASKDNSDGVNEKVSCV
T1 sequence (P41595 whole entry): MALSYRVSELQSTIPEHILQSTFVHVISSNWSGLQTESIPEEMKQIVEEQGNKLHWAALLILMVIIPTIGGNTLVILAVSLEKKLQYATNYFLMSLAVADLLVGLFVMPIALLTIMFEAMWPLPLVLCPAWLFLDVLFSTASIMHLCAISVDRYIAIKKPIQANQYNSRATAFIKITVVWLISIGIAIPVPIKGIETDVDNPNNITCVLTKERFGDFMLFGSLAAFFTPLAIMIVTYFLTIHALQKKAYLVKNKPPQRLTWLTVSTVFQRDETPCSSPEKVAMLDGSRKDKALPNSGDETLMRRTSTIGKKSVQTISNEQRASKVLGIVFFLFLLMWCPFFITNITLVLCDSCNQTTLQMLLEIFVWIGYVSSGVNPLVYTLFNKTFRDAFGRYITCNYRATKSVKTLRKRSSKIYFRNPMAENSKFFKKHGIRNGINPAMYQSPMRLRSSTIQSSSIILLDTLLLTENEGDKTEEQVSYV

As to `CNC(=O)c1ccc2c3c1C(CC(F)(F)F)CN3CCNC2` (single isomer, unassigned; (-)), the “inhibition (INH)” value in the test on Rattus norvegicus (10 mg/kg) is 0%.
Consider `CCCNC(=O)c1ccc2c3c1C(CC(F)(F)F)CN3CCNC2` (single isomer, unassigned; (+)), for which the inhibition in vivo (as a rule, the relative decrease from the control value, in per cent) at 10 mg/kg in the test with Rattus norvegicus was found to be 53%.
As to `CCCOCCNC(=O)c1ccc2c3c1CCN3CCNC2`, the values for the EC50 in test [1], in test [5] and in test [6] were over 50 µM, 0.015 µM and over 50 µM, respectively. Moreover, the Ki – broadly, the equilibrium dissociation constant of an inhibitor or competing ligand from its target – in test [2] is 2.51 µM; in test [3], 0.506 µM; in test [4], 0.019 µM.
In the case of `O=C(NCC1CC1)c1ccc2c3c1CCN3CCNC2`, the values for the EC50 in test [1], in test [5] and in test [6] were over 50 µM, 0.36 µM and over 50 µM, respectively. In addition, the inhibition constant Ki in test [2] is 17.8 µM; in test [3] it was 17.8 µM; in test [4], 0.32 µM.
Regarding `O=C(NCCCl)c1ccc2c3c1CCN3CCNC2`, the EC50 (commonly the concentration that produces a half-maximal response) in test [1] is over 50 µM; in test [5], 0.033 µM; in test [6] it was over 50 µM. Further, the results for the Ki in test [2], in test [3] and in test [4] were 2.49 µM, 18.9 µM and 0.061 µM, respectively.
As for `CCOCCNC(=O)c1ccc2c3c1CCN3CCNC2`, the figures for the EC50 in test [1], in test [5] and in test [6] were over 50 µM, 0.033 µM and over 50 µM, respectively. In addition, the inhibitory constant (Ki) is 15.5 µM in test [2], 6.07 µM in test [3] and 0.043 µM in test [4]. In addition, in the test on Rattus norvegicus, the inhibition in vivo at 10 mg/kg stood at 26%.
With `CCSCCNC(=O)c1ccc2c3c1CCN3CCNC2`, the EC50 is over 50 µM in test [1], 0.015 µM in test [5] and over 50 µM in test [6]. For the same compound, the inhibitory constant (Ki) is over 50 µM in test [2], 17.8 µM in test [3] and 0.029 µM in test [4].
`CCCCNC(=O)c1ccc2c3c1CCN3CCNC2`: the values for the EC50 in test [1], in test [5] and in test [6] were over 50 µM, 0.091 µM and over 50 µM, respectively. Besides, the results for the inhibition constant (Ki) in test [2], in test [3] and in test [4] were 11.8 µM, over 30 µM and 0.16 µM, respectively.
`CC(C)NC(=O)c1ccc2c3c1CCN3CCNC2`: the EC50 in test [1] was over 50 µM; in test [5], 3.92 µM; in test [6], over 50 µM. Moreover, the Ki was 8.76 µM in test [2], over 30 µM in test [3] and 1.15 µM in test [4].

The values above are taken from ChEMBL document CHEMBL6182909 (J Med Chem, 2025).
